Columns and labels:
[1] = target: T1, human Neuropeptide Y receptor type 2 (Homo sapiens, UniProt P49146); assay: melanophore assay, potency at the human Neuropeptide Y receptor type 2; format: cell-based; conditions: read-out: hNPY Y2 pEC50 (converted)
T1 construct: expressed in transfected cells; host or cells: melanophores; own knowledge: in the cited Jayawickreme protocol these are Xenopus laevis melanophores transfected with the receptor
T1 sequence (P49146 1-381): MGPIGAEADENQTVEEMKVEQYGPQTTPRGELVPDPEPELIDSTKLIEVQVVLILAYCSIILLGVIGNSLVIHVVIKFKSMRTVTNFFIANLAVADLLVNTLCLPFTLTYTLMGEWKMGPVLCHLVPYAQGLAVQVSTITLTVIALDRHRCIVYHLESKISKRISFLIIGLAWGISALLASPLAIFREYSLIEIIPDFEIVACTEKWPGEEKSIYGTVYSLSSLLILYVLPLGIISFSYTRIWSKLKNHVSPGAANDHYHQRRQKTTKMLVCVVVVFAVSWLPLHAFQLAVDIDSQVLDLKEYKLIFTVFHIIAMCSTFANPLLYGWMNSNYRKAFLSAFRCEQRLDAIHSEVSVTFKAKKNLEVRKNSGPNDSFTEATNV

[2] = cumulative food intake, diet-induced obese mice (Model B), BioDaQ system; format: in vivo; conditions: diet-induced obese C57BL/6 mice, 1 mg/kg subcutaneously, cumulative food intake after 6 h, relative to vehicle controls
Experimental: (§1) Cumulative food intake after 6 h was determined for the PYY analogs in either lean (Model A) or diet-induced obese (DIO) (Model B) C57BL/6 mice in a BioDaQ system for continuous monitoring of food intake (Research Diets Inc., New Brunswick, N.J.). […] Mice were placed singly into the BioDaQ cages and acclimatized for a minimum of 6 days and were allowed ad libitum access to food and water. Approximately 1 hour prior to lights-out, animals were dosed subcutaneously with either vehicle (20 mM Acetate buffer, pH 4.9 or 20% DMSO in water) or analogs dissolved in vehicle (1 mg/kg) (8 animals per group). Once all animals have been dosed, feeder gates were opened providing ad-libitum access to food. Continuous food intake was monitored and collected for 15 hours. […] P-values<0.05 were considered to indicate a significant difference between treatment groups.

[3] = chronic (41 days) efficacy study in diet-induced obese (DIO) Long Evans rats: body weight, body composition, food intake; format: in vivo, Long Evans rat; conditions: for weight loss vs. vehicle: 40 days, subcutaneous osmotic pumps, ED50 doses; for fat mass lost from vehicle control: QMR, day 40 of treatment; for inhibition of cumulative food intake: treatment period, vs. vehicle control
Experimental: Rats were 17 weeks old at the start of the study. The rats were housed 1 per cage and given ad libitum access to TD.95217 chow and water, maintained on a 12 h light/dark cycle from 5:00 AM to 5:00 PM at 21° C. and 50% relative humidity and allowed to acclimate for at least 7 days prior to baseline measurements. Baseline fat mass and non-fat mass measurements were taken 3 days before the start of peptide infusion and on day 40 of treatment using a QMR instrument (Echo Medical Systems, Houston, Tex.). […] Each rat was implanted with two osmotic pumps subcutaneously in the scapula region containing vehicle or peptide according to their treatment group. Body weight and food intake were measured twice per week beginning three days before the 41-day treatment period. On day 41 of treatment, whole blood was collected by cardiac stick under isoflurane anesthesia. Plasma and serum were then prepared from the whole blood for serum chemistry analysis. All the data are presented as mean±SEM. The data were analyzed in either Prism (GraphPad Software, Inc., La Jolla, Calif.) or Excel using a Student's T-test to compare each group to the appropriate control group. P-values<0.05 were considered to indicate a significant difference between treatment groups.

[4] = chronic (26 days) efficacy study in Zucker Diabetic Fatty (ZDF) rats: glucose, HbA1c; format: in vivo, Zucker Diabetic Fatty (ZDF) rat; conditions: for ΔΔ % HbA1c / ΔΔGlucose: 26 days of treatment, change from baseline and vehicle control; for ΔΔGlucose: ED20 doses
From the text: Male ZDF rats were 12 weeks old at the start of the study (Charles River, Inc. Boston, Mass.). […] Baseline fat mass and non-fat mass measurements were taken 3 days before the start of peptide infusion and on day 26 of treatment using a QMR instrument (Echo Medical Systems, Houston, Tex.). […] P-values<0.05 were considered to indicate a significant difference between treatment groups.

[5] = cumulative food intake, lean mice (Model A), BioDaQ system; format: in vivo; conditions: lean C57BL/6 mice, 1 mg/kg subcutaneously, cumulative food intake after 6 h, relative to vehicle controls
Experimental: as §1

EC50 [1]	Molecule	weight loss vs. vehicle [3]	fat mass lost from vehicle control [3]	inhibition of cumulative food intake [3]	ΔΔ % HbA1c [4]	ΔΔGlucose [4]	% change in food intake vs vehicle, model A [5]	also measured
0.251 nM	CC(C)C[C@H](NC(=O)[C@H](CO)NC(=O)[C@H](C)NC(=O)[C@H](Cc1ccc(O)cc1)NC(=O)[C@H](Cc1ccc(O)cc1)NC(=O)[C@H](CCCNC(=N)N)NC(=O)[C@H](CC(N)=O)NC(=O)[C@H](Cc1c[nH]c2ccccc12)NC(=O)[C@H](CCC(=O)O)NC(=O)[C@H](CCC(=O)O)NC(=O)[C@@H]1CCCN1C(=O)[C@H](CO)NC(=O)[C@H](C)NC(=O)[C@H](CC(=O)O)NC(=O)[C@H](CCCCN)NC(=O)CNC(=O)[C@@H]1CCCN1C(=O)[C@H](Cc1c[nH]cn1)NC(=O)[C@H](CCC(=O)O)NC(=O)[C@@H]1CCCN1C(=O)[C@H](CCCCN)NC(=O)[C@@H]1CCCN1)C(=O)N[C@@H](CCCNC(=N)N)C(=O)N[C@@H](CCCCN)C(=O)N[C@@H](Cc1ccc(O)cc1)C(=O)N[C@@H](CC(C)C)C(=O)N[C@@H](CC(N)=O)C(=O)N[C@@H](Cc1c[nH]c2ccccc12)C(=O)N[C@H](C(=O)N[C@H](C(=O)N[C@@H](CCCNC(=N)N)C(=O)N[C@@H](CCC(N)=O)C(=O)N[C@@H](CCCNC(=N)N)C(=O)N[C@@H](Cc1ccc(O)cc1)C(N)=O)[C@@H](C)O)C(C)C [Example 25]	–	–	–	–	–	–	% reduction in food intake, model B [2]: −68%
–	exendin-4	−11.3%	−55.8 grams	−20.1%	−0.4 ± 0.2%	-53.9 mg/dL	–	ED50 for weight loss ([3]; dose used for infusion): 0.15 mg/kg/day; ΔΔGlucose ([4]; listed as Exendin-4): -53.9 ± 18.3 mg/dL; ED20 for HbA1c lowering ([4]; dose used for infusion): 0.0055 mg/kg/day
0.501 nM	CC[C@H](C)[C@H](N)C(=O)N[C@@H](CCCCN)C(=O)N1CCC[C@H]1C(=O)N1CCC[C@H]1C(=O)N[C@@H](Cc1ccc(O)cc1)C(=O)N1CCC[C@H]1C(=O)NCC(=O)N[C@@H](CS)C(=O)N[C@@H](CC(=O)O)C(=O)N[C@@H](C)C(=O)N[C@@H](CO)C(=O)N1CCC[C@H]1C(=O)N[C@@H](CCC(=O)O)C(=O)N[C@@H](CCC(=O)O)C(=O)N[C@@H](CCC(N)=O)C(=O)N[C@@H](CC(N)=O)C(=O)N[C@@H](CCCCN)C(=O)N[C@@H](Cc1ccc(O)cc1)C(=O)N[C@@H](Cc1ccc(O)cc1)C(=O)N[C@@H](C)C(=O)N[C@@H](CO)C(=O)N[C@@H](CC(C)C)C(=O)N[C@@H](CCCNC(=N)N)C(=O)N[C@@H](C)C(=O)N[C@@H](Cc1ccc(O)cc1)C(=O)N[C@@H](Cc1c[nH]c2ccccc12)C(=O)N[C@@H](CC(N)=O)C(=O)N[C@@H](CC(C)C)C(=O)N[C@H](C(=O)N[C@H](C(=O)N[C@@H](CCCNC(=N)N)C(=O)N[C@@H](CCC(N)=O)C(=O)N[C@@H](CCCNC(=N)N)C(=O)N[C@@H](Cc1ccc(O)cc1)C(N)=O)[C@@H](C)O)C(C)C [Peptide 8]	–	–	–	–	–	-19%	–
–	PYY(3-36)NH2	−1.3%	−10.9 grams	−0.7%	0.01 ± 0.4%	−33.1 ± 17^ mg/dL	–	–
0.0398 nM	CC(C)C[C@H](NC(=O)[C@H](CO)NC(=O)[C@H](C)NC(=O)[C@H](Cc1ccc(O)cc1)NC(=O)[C@H](Cc1ccc(O)cc1)NC(=O)[C@H](CCCNC(=N)N)NC(=O)[C@H](CC(N)=O)NC(=O)[C@H](Cc1c[nH]c2ccccc12)NC(=O)[C@H](CCC(=O)O)NC(=O)[C@H](CCC(=O)O)NC(=O)[C@@H]1CCCN1C(=O)[C@H](CO)NC(=O)[C@H](C)NC(=O)[C@H](CC(=O)O)NC(=O)[C@H](CCCCN)NC(=O)CNC(=O)[C@@H]1CCCN1C(=O)[C@H](C)NC(=O)[C@H](CCC(=O)O)NC(=O)[C@@H]1CCCN1C(=O)[C@H](CCCCN)NC(=O)[C@@H]1CCCN1)C(=O)N[C@@H](CCCNC(=N)N)C(=O)N[C@@H](CCCCN)C(=O)N[C@@H](Cc1ccc(O)cc1)C(=O)N[C@@H](CC(C)C)C(=O)N[C@@H](CC(N)=O)C(=O)N[C@@H](Cc1c[nH]c2ccccc12)C(=O)N[C@H](C(=O)N[C@H](C(=O)N[C@@H](CCCNC(=N)N)C(=O)N[C@@H](CCC(N)=O)C(=O)N[C@@H](CCCNC(=N)N)C(=O)N[C@@H](Cc1ccc(O)cc1)C(N)=O)[C@@H](C)O)C(C)C [Example 10]	–	–	–	–	–	−88%	–
